pIC50: −log10 of the molar value.

For this assay, the target named is full length MPS1 (Homo sapiens (Human), UniProt P33981). The experiment in a line: Measurement of inhibition of MPS1 kinase (Caliper EZ reader mobility-shift enzyme assay). The assay is classed as biochemical. Conditions: full length MPS1 12.5 nM or 3 nM, H236 peptide 5 μM, ATP 10 μM, 60 min at room temperature. Here is the method: Measurement of Inhibition of MPS1 Kinase
Chain of full length MPS1 (P33981 whole entry): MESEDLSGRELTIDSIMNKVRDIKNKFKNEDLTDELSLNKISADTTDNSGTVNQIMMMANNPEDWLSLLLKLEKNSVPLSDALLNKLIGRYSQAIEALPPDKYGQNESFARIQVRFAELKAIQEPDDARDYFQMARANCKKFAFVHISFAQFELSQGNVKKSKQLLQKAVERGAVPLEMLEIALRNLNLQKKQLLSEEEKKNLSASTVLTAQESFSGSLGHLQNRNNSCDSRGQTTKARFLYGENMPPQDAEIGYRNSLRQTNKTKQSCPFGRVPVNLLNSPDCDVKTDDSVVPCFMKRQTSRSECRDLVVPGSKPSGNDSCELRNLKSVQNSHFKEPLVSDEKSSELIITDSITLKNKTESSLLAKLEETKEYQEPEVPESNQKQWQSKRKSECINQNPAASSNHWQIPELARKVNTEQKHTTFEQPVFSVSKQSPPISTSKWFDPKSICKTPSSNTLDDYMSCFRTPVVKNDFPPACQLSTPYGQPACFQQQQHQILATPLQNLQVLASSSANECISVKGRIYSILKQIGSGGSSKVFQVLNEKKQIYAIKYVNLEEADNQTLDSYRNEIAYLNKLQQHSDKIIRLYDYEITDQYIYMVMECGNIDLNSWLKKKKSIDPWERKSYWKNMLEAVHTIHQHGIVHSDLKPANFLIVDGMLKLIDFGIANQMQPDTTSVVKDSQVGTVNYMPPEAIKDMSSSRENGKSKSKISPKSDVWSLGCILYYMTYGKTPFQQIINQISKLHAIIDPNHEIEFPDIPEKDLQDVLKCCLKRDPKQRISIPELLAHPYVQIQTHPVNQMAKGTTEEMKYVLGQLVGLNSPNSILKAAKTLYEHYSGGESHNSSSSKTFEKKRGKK
The reaction was carried out for 60 min at room temperature and stopped by the addition of buffer (10 μl) containing 20 mM EDTA, 0.05% (v/v) Brij-35, in 0.1M HEPES-buffered saline (Free acid, Sigma, UK). The plate was read on a Caliper EZ reader II (Caliper Life Sciences).
The % inhibition of the compounds is calculated relative to the means of selected control wells.
The term pIC50 denotes the negative decadic logarithm of the IC50, by convention in mol/L. For `COc1nc(S(C)(=O)=O)ccc1Nc1ncc2ccnc(NCC(C)(C)C)c2n1` [Example 46, N2-(2-methoxy-6-(methylsulfonyl)pyridin-3-yl)-N8-neopentylpyrido[3,4-d]pyrimidine-2,8-diamine], the negative logarithm of the IC50 (pIC50) is 7.77. Regarding `Cn1cc(-c2cccc3cnc(Nc4ccc(-c5cncn5C)cc4Cl)cc23)cn1` [Example 17, N-(2-chloro-4-(1-methyl-1H-imidazol-5-yl)phenyl)-5-(1-methyl-1H-pyrazol-4-yl)isoquinolin-3-amine], the negative logarithm of the IC50 (pIC50) was 7.29. As for `COc1cc(C2CCOCC2)ccc1Nc1ncc2ccnc(NCC3(C)CCOC3)c2n1` (stereo not shown) [Example 154, N^2-(2-methoxy-4-(tetrahydro-2H-pyran-4-yl)phenyl)-N^8-((3-methyltetrahydrofuran-3-yl)methyl)pyrido[3,4-d]pyrimidine-2,8-diamine], the figure is 8.15; as for `COc1cc(-c2cnn(C)c2)ccc1Nc1ncc2ccnc(NC(C)C3CC3)c2n1` (stereo not shown) [Example 75, N8-(1-cyclopropylethyl)-N2-(2-methoxy-4-(1-methyl-1H-pyrazol-4-yl)phenyl)pyrido[3,4-d]pyrimidine-2,8-diamine], 8.40.

With `COc1cc(-c2cnn(C)c2)ccc1Nc1ncc2ccnc(N3CCCC4(COC4)C3)c2n1` [Example 123, N-(2-methoxy-4-(1-methyl-1H-pyrazol-4-yl)phenyl)-8-(2-oxa-6-azaspiro[3.5]nonan-6-yl)pyrido[3,4-d]pyrimidin-2-amine], the negative logarithm of the IC50 (pIC50) was 7.96. As for `COc1cc(-c2cnc(C)n2C)ccc1Nc1ncc2cc(C)nc(NCC(C)(C)OC)c2n1` [Example 158], the pIC50 is 8.52. With `COc1cc(-c2cnn(C)c2)ccc1Nc1ncc2ccnc(NS(=O)(=O)C(C)(C)C)c2n1` [Example 107, N-(2-(2-methoxy-4-(1-methyl-1H-pyrazol-4-yl)phenylamino)pyrido[3,4-d]pyrimidin-8-yl)-2-methylpropane-2-sulfonamide], the pIC50 was 7.41. Take `COc1cc(N2CCC(C(=O)N3CCOCC3)CC2)ccc1Nc1ncc2ccnc(NCC(C)(C)C)c2n1` [Example 172, (1-(3-methoxy-4-((8-(neopentylamino)pyrido[3,4-d]pyrimidin-2-yl)amino)phenyl)piperidin-4-yl)(morpholino)methanone]: the pIC50 was 7.92. Regarding `COc1cc(-c2cnn(C)c2)ccc1Nc1ncc2ccnc(N3CCC(CO)C3)c2n1` (stereo not shown) [Example 133, (1-(2-(2-Methoxy-4-(1-methyl-1H-pyrazol-4-yl)phenylamino)pyrido[3,4-d]pyrimidin-8-yl)pyrrolidin-3-yl)methanol], the pIC50 was 8.52.

As to `COc1cc(C(=O)N2CC(OC)C2)ccc1Nc1cc2c(-c3cncnc3)cccc2cn1` [Example 15, (3-methoxy-4-((5-(pyrimidin-5-yl)isoquinolin-3-yl)amino)phenyl)(3-methoxyazetidin-1-yl)methanone], the pIC50 is 7.01. Under `COc1cc(-c2cnn(C)c2)ccc1Nc1ncc2ccnc(NCC3CCO3)c2n1` (stereo not shown) [Example 116, N^2-(2-methoxy-4-(1-methyl-1H-pyrazol-4-yl)phenyl)-N8-(oxetan-2-ylmethyl)pyrido[3,4-d]pyrimidine-2,8-diamine] stands 8.10. Regarding `Cc1nnc(-c2ccc(Nc3ncc4ccnc(N5CCC6(COC6)C5)c4n3)c(Cl)c2)o1` [Example 201], the pIC50 was 7.40. Consider `COc1cc(-c2cnn(C)c2)ccc1Nc1cc2c(NCC3CC3)nccc2cn1` [Example 106, N1-(cyclopropylmethyl)-N7-(2-methoxy-4-(1-methyl-1H-pyrazol-4-yl)phenyl)-2,6-naphthyridine-1,7-diamine], for which the negative-log IC50 (pIC50) is 7.09. With `CN1CCC(NC(=O)c2ccc(Nc3cc4c(-c5cnn(C)c5)cccc4cn3)c(OC(F)(F)F)c2)CC1` [Example 6, 4-((5-(1-methyl-1H-pyrazol-4-yl)isoquinolin-3-yl)amino)-N-(1-methylpiperidin-4-yl)-3-(trifluoromethoxy)benzamide], the negative logarithm of the IC50 (pIC50) was 6.53. For the molecule `COc1cc(-c2cnn(C)c2)ccc1Nc1ncc2ccnc(N3CCC(C)C3)c2n1` (stereo not shown) [Example 56, N-(2-methoxy-4-(1-methyl-1H-pyrazol-4-yl)phenyl)-8-(3-methylpyrrolidin-1-yl)pyrido[3,4-d]pyrimidin-2-amine], the negative logarithm of the IC50 (pIC50) was 8.00. Take `N#Cc1ccc(Nc2ncc3ccnc(N4CCC5(COC5)C4)c3n2)c(Cl)c1` [Example 205]: the pIC50 is 7.06. For `COc1cc(-c2cnn(C)c2)ccc1Nc1cc2c(-c3cnn(C)c3)nccc2cn1` [Example 103, N-(2-methoxy-4-(1-methyl-1H-pyrazol-4-yl)phenyl)-5-(1-methyl-1H-pyrazol-4-yl)-2,6-naphthyridin-3-amine], the pIC50 was 7.92. `COc1cc(-c2cnn(C)c2)ccc1Nc1ncc2ccnc(NC3(C)CCCCC3)c2n1` [Example 83, N2-(2-methoxy-4-(1-methyl-1H-pyrazol-4-yl)phenyl)-N8-(1-methylcyclohexyl)pyrido[3,4-d]pyrimidine-2,8-diamine]: the pIC50 is 7.72. Turning to `COC(C)(C)CNc1nccc2cnc(Nc3ccc(Cl)cc3OC(F)F)nc12` [Example 202], the negative logarithm of the IC50 (pIC50) is 7.15. As to `CCOc1cc(-c2cnn(C)c2)ccc1Nc1ncc2ccnc(NC3CCOCC3)c2n1` [Example 102, N2-(2-ethoxy-4-(1-methyl-1H-pyrazol-4-yl)phenyl)-N8-(tetrahydro-2H-pyran-4-yl)pyrido[3,4-d]pyrimidine-2,8-diamine], the pIC50 is 8.00. On to `COc1cc(-c2cnn(C)c2)ccc1Nc1ncc2ccnc(NCC3(C)CCOC3)c2n1` (racemic) [Example 117, N^2-(2-methoxy-4-(1-methyl-1H-pyrazol-4-yl)phenyl)-N^8-((3-methyltetrahydrofuran-3-yl)methyl)pyrido[3,4-d]pyrimidine-2,8-diamine], for which the negative logarithm of the IC50 (pIC50) was 8.52.

`COc1cc(-c2cnn(C)c2)ccc1Nc1ncc2ccnc(NC(C)(C)CO)c2n1` [Example 114]: the negative-log IC50 (pIC50) is 7.77. Take `COc1cc(C(=O)N2CC(OC)C2)ccc1Nc1cc2c(-c3cccnc3)cccc2cn1` [Example 21, (3-Methoxy-4-((5-(pyridin-3-yl)isoquinolin-3-yl)amino)phenyl)(3-methoxyazetidin-1-yl)methanone]: the pIC50 is 7.52. With `COc1cc(-c2cnn(C)c2)ccc1Nc1ncc2ccnc(NCCC(C)C)c2n1` [Example 60, N8-isopentyl-N2-(2-methoxy-4-(1-methyl-1H-pyrazol-4-yl)phenyl)pyrido[3,4-d]pyrimidine-2,8-diamine], the pIC50 is 7.68. On to `COc1cc(-c2cnn(C)c2)ccc1Nc1ncc2ccnc(NCC(F)(F)F)c2n1` [Example 87, N2-(2-methoxy-4-(1-methyl-1H-pyrazol-4-yl)phenyl)-N8-(2,2,2-trifluoroethyl)pyrido[3,4-d]pyrimidine-2,8-diamine], for which the pIC50 was 7.12.

Turning to `COc1cc(-c2cnn(C)c2)ccc1Nc1ncc2ccnc(C3=CCOCC3)c2n1` [Example 144, 8-(3,6-Dihydro-2H-pyran-4-yl)-N-(2-methoxy-4-(1-methyl-1H-pyrazol-4-yl)phenyl)pyrido[3,4-d]pyrimidin-2-amine], the pIC50 is 8.30. For the molecule `COc1cc(-c2cnn(C)c2)ccc1Nc1ncc2ccnc(N(C)C3CCCC3)c2n1` [Example 59, N8-cyclopentyl-N2-(2-methoxy-4-(1-methyl-1H-pyrazol-4-yl)phenyl)-N8-methylpyrido[3,4-d]pyrimidine-2,8-diamine], the pIC50 was 7.35.

With `COc1cc(-c2cnn(C)c2)ccc1Nc1ncc2ccnc(N3CCC(O)C3)c2n1` (stereo not shown) [Example 80, 1-(2-(2-methoxy-4-(1-methyl-1H-pyrazol-4-yl)phenylamino)pyrido[3,4-d]pyrimidin-8-yl)pyrrolidin-3-ol], the negative-log IC50 (pIC50) is 8.22. As for `CCOc1cc(-c2nncn2C)ccc1Nc1ncc2ccnc(NCC3(C)CCOC3)c2n1` (stereo not shown) [Example 189], the figure is 9.00.

Turning to `COc1cc(-c2cnn(C)c2)ccc1Nc1ncc2ccnc(N3CC4(COC4)C3)c2n1` [Example 115, N-(2-methoxy-4-(1-methyl-1H-pyrazol-4-yl)phenyl)-8-(2-oxa-6-azaspiro[3.3]heptan-6-yl)pyrido[3,4-d]pyrimidin-2-amine], the pIC50 was 8.52. As for `COc1cc(-c2cnn(C)c2)ccc1Nc1ncc2ccnc(NC(CO)CO)c2n1` [Example 130, 2-(2-(2-Methoxy-4-(1-methyl-1H-pyrazol-4-yl)phenylamino)pyrido[3,4-d]pyrimidin-8-ylamino)propane-1,3-diol], the figure is 8.40; as for `COc1nc(-c2cn(C)nc2C)ccc1Nc1ncc2ccnc(NCC(C)(C)OC)c2n1` [Example 164, N^2-(6-(1,3-Dimethyl-1H-pyrazol-4-yl)-2-methoxypyridin-3-yl)-N^8-(2-methoxy-2-methylpropyl)pyrido[3,4-d]pyrimidine-2,8-diamine], 8.52; as for `CCOc1cc(-c2nncn2C)ccc1Nc1ncc2cc(C)nc(N3CC4(CCOC4)C3)c2n1` [Example 160, N-(2-ethoxy-4-(4-methyl-4H-1,2,4-triazol-3-yl)phenyl)-6-methyl-8-(6-oxa-2-azaspiro[3.4]octan-2-yl)pyrido[3,4-d]pyrimidin-2-amine], 8.52. For `COc1cc(-c2cnn(C)c2)ccc1Nc1ncc2ccnc(NCC(C)(F)F)c2n1` [Example 84, N8-(2,2-difluoropropyl)-N2-(2-methoxy-4-(1-methyl-1H-pyrazol-4-yl)phenyl)pyrido[3,4-d]pyrimidine-2,8-diamine], the negative logarithm of the IC50 (pIC50) is 7.85.

Take `COc1cc(-c2cnn(C)c2CO)ccc1Nc1ncc2ccnc(NCC3(C)CCOC3)c2n1` (stereo not shown) [Example 185]: the pIC50 is 9.00.

For the molecule `COc1cc(-c2cnn(C)c2)ccc1Nc1ncc2ccnc(N3CC4(CCOCC4)C3)c2n1` [Example 119, N-(2-methoxy-4-(1-methyl-1H-pyrazol-4-yl)phenyl)-8-(7-oxa-2-azaspiro[3.5]nonan-2-yl)pyrido[3,4-d]pyrimidin-2-amine], the pIC50 is 8.52. For the molecule `COCCn1c(-c2ccc(Nc3ncc4ccnc(NCC(C)(C)OC)c4n3)c(OC)c2)cnc1C` [Example 186], the pIC50 was 8.40.
